pIC50: −log10 of the molar value. Values after ≈ are worked out from the molar mass of the structure shown.
Tests used:
[1] = tested on: MDA-MB-231; experiment: Cytotoxicity against human MDA-MB-231 cells assessed as inhibition of cell proliferation after 48 hrs by XTT assay; assay type: functional, cell-based; details: MDA-MB-231, 48 h
[2] = tested on: SW-620; experiment: Cytotoxicity against human SW620 cells assessed as inhibition of cell proliferation after 48 hrs by XTT assay; assay type: functional, cell-based; details: SW-620, 48 h
[3] = tested on: NCI-H460; experiment: Cytotoxicity against human NCI-H460 cells assessed as inhibition of cell proliferation after 48 hrs by XTT assay; assay type: functional, cell-based; details: NCI-H460, 48 h
[4] = tested on: ASPC1; experiment: Cytotoxicity against human AsPC1 cells assessed as inhibition of cell proliferation after 48 hrs by XTT assay; assay type: functional, cell-based; details: ASPC1, 48 h
[5] = Kinetic solubility of the compound in water containing 5% DMSO at pH 6.8; assay type: physicochemical; details: read-out: Kinetic_solubility
[6] = Cytotoxicity against mouse B16F10 cells assessed as inhibition of cell proliferation after 48 hrs by XTT assay; assay type: functional, cell-based; details: B16-F10, 48 h

solubility kinetic [5] | Compound | pIC50 [1] | pIC50 [2] | pIC50 [3] | pIC50 ([4]; read-out: IC50) | pIC50 [6] | pIC50 [4]
148 µM (≈ 67 µg/mL) | COc1c(OC(C)=O)cc2oc3cc(O)c(CC=C(C)C)c(O)c3c(=O)c2c1CC=C(C)C | 4.89 | 4.96 | 4.90 | 4.86 | 4.88 | –
– | COc1c(OCC(=O)O)cc2oc3cc(O)c(CC=C(C)C)c(O)c3c(=O)c2c1CC=C(C)C | < 4.00 | 4.33 | 4.26 | 4.28 | 4.54 | –
– | COc1c(OCC(=O)O)cc2oc3cc(OCC(=O)O)c(CC=C(C)C)c(O)c3c(=O)c2c1CC=C(C)C | < 4.00 | < 4.00 | < 4.00 | < 4.00 | 4.02 | –
149 µM (≈ 67.1 µg/mL) | C=CCOc1cc2oc3cc(O)c(CC=C(C)C)c(O)c3c(=O)c2c(CC=C(C)C)c1OC | 4.75 | 4.92 | 4.91 | 4.67 | 4.78 | –
– | COc1c(OS(=O)(=O)C(F)(F)F)cc2oc3cc(OS(=O)(=O)C(F)(F)F)c(CC=C(C)C)c(O)c3c(=O)c2c1CC=C(C)C | 4.77 | 5.05 | 4.65 | 4.86 | 4.81 | –
– | C=CCOc1cc2oc3cc(OC)c(CC=C(C)C)c(O)c3c(=O)c2c(CC=C(C)C)c1OC | < 4.00 | < 4.00 | < 4.00 | < 4.00 | < 4.00 | –
– | C=CCOc1cc2oc3cc(OCC=C)c(OC)c(CC=C(C)C)c3c(=O)c2c(OC)c1CC=C(C)C | 4.55 | 4.35 | 4.84 | 4.59 | 4.39 | –
104 µM (≈ 44.1 µg/mL) | COc1c(O)cc2oc3cc(O)c(CC=C(C)C)c(OC)c3c(=O)c2c1CC=C(C)C | 4.68 | 4.74 | 4.97 | 4.86 | 4.78 | –
– | COc1ccc2oc3cc(O)c(CCC(C)C)c(O)c3c(=O)c2c1CCC(C)C | < 4.00 | < 4.00 | < 4.00 | < 4.00 | < 4.00 | –
– | COc1ccc2oc3ccc(CCC(C)C)c(O)c3c(=O)c2c1CCC(C)C | < 4.00 | < 4.00 | < 4.00 | < 4.00 | < 4.00 | –
138 µM (≈ 54.9 µg/mL) | COc1c(N)cc2oc3ccc(CCC(C)C)c(O)c3c(=O)c2c1CCC(C)C | 4.51 | 4.80 | 4.75 | 4.50 | 4.84 | –
78 µM (≈ 32.3 µg/mL) | COc1c(O)cc2oc3cc(O)c(CCC(C)C)c(O)c3c(=O)c2c1CCC(C)C | 5.31 | 5.19 | 5.38 | 5.33 | 5.18 | –
339 µM (≈ 156 µg/mL) | COc1c(O)cc2oc3c([N+](=O)[O-])c(O)c(CCC(C)C)c(O)c3c(=O)c2c1CCC(C)C | 4.54 | 4.65 | 4.77 | 4.50 | – | –
– | COc1c(O)cc2oc3c(N)c(O)c(CCC(C)C)c(O)c3c(=O)c2c1CCC(C)C | 4.76 | 5.20 | 4.82 | 4.89 | 4.91 | –
381 µM (≈ 171 µg/mL) | COc1c(O)cc2oc3c(Cl)c(O)c(CCC(C)C)c(O)c3c(=O)c2c1CCC(C)C | 5.00 | 5.02 | 5.00 | 4.72 | 4.91 | –
– | C#CCOc1c(O)cc2oc3cc(O)c(CC=C(C)C)c(O)c3c(=O)c2c1CC=C(C)C | < 4.00 | < 4.00 | < 4.00 | < 4.00 | – | –
– | CC(C)=CCc1c(O)cc2oc3cc(O)c(OCc4cn(CC(=O)OC(C)(C)C)nn4)c(CC=C(C)C)c3c(=O)c2c1O | < 4.00 | < 4.00 | < 4.00 | < 4.00 | – | –
– | C=CCOc1cc2oc3cc(OCC=C)c(OC)c(CC=C(C)C)c3c(=O)c2c(O)c1CC=C(C)C | < 4.00 | < 4.00 | < 4.00 | < 4.00 | < 4.00 | –
– | COc1c(O)cc2oc3cc4c(c(O)c3c(=O)c2c1CC=C(C)C)CCC(C)(C)O4 | < 4.00 | < 4.00 | < 4.00 | < 4.00 | < 4.00 | –
122 µM (≈ 60.3 µg/mL) | COc1c(OC(C)=O)cc2oc3cc(OC(C)=O)c(CC=C(C)C)c(O)c3c(=O)c2c1CC=C(C)C | 4.76 | 4.64 | 4.90 | 4.85 | 4.82 | –
– | COc1cccc2c1C(=O)c1c(O)c3c(c(O)c1C2=O)C[C@@](O)(C(=O)CO)C[C@@H]3O[C@H]1C[C@H](N)[C@H](O)[C@H](C)O1 [DOXORUBICIN] | 6.01 | 6.92 | 7.10 | – | 6.92 | 5.73
– | COc1c(O)cc2oc3cc4c(c(O)c3c(=O)c2c1CC=C(C)C)C=CC(C)(C)O4 [MANGOSTANIN] | 4.68 | 4.58 | 4.71 | 4.59 | 4.58 | –
20 µM (≈ 8.21 µg/mL) | COc1c(O)cc2oc3cc(O)c(CC=C(C)C)c(O)c3c(=O)c2c1CC=C(C)C [MANGOSTIN] | 5.52 | 5.53 | 5.49 | 5.40 | 5.49 | –

Compound | solubility kinetic [5] | pIC50 [1] | pIC50 [2] | pIC50 [3] | pIC50 ([4]; read-out: IC50) | pIC50 [6] | pIC50 [4]
CC(C)=CCc1c(O)cc2oc3cc(O)c(O)c(CC=C(C)C)c3c(=O)c2c1O | 94 µM (≈ 37.3 µg/mL) | 5.23 | 5.24 | 5.35 | 5.23 | – | –
